Experimental findings from PubChem BioAssay (NCI) are described below.

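Compound exposure: 48 hours, 5 concentrations, 96-well plates. The concentration for full growth arrest is given as TGI.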 Where only a bound is given, the exact number is not on record here.

Test systems include IGROV1 ovarian; UACC-257 melanoma; MALME-3M melanoma; SN12C renal; LOX IMVI melanoma; HT29 colon; NCI-H226 lung; SF-268 CNS; HL-60(TB) leukemia; U251 CNS; SF-539 CNS.
Holding throughout (experiment): growth of human tumour cells (NCI), 48 h

Regarding `FC(F)(F)c1cc(N(C2c3ccccc3C=Cc3ccccc32)P(Cl)Cl)cc(C(F)(F)F)c1`, the TGI in the assay with IGROV1 ovarian was 92.3 µM; in the assay on UACC-257 melanoma, 39.9 µM; in the assay with MALME-3M melanoma it was 36 µM; in the assay with SN12C renal, 32.7 µM; in the assay with LOX IMVI melanoma it was 36.1 µM; with HT29 colon it was more than 100 µM. Also, the TGI came to 38.7 µM in the assay with NCI-H226 lung; 33.8 µM with SF-268 CNS; 81.6 µM in the assay on HL-60(TB) leukemia; 33.8 µM in the assay on U251 CNS; 66.6 µM in the assay on SF-539 CNS.

Consider `CCOC(=O)/C(C(N)=O)=C(\O)C(=O)/C(Br)=C(\O)c1ccccc1`, for which the TGI was 31.1 µM in the assay on IGROV1 ovarian; 31.8 µM in the assay with UACC-257 melanoma; 29.2 µM with MALME-3M melanoma; 34.2 µM with SN12C renal; 36.3 µM with LOX IMVI melanoma; more than 70.8 µM with HT29 colon. For the same molecule, the TGI is 51.6 µM in the assay on NCI-H226 lung; 39.5 µM with SF-268 CNS; 0.248 µM in the assay with HL-60(TB) leukemia; 35.3 µM in the assay on U251 CNS; 36.5 µM with SF-539 CNS.

Turning to `Cc1cc(-n2nnc(C(=O)O)c2-c2ccccc2)c2ccc(Cl)cc2n1`, the TGI in the assay on IGROV1 ovarian, with UACC-257 melanoma, with MALME-3M melanoma, in the assay on SN12C renal, with LOX IMVI melanoma and in the assay with HT29 colon was more than 100 µM throughout. The TGI in the assay with NCI-H226 lung, in the assay with SF-268 CNS, in the assay on HL-60(TB) leukemia, in the assay with U251 CNS and in the assay with SF-539 CNS was more than 100 µM in each case.

Regarding `CC(C)(C)OC(=O)[C@@H]1CCC(=O)N1C1(c2ccccc2)c2ccccc2-c2ccccc21`, the TGI in the assay with IGROV1 ovarian is more than 100 µM; with UACC-257 melanoma, more than 100 µM; with MALME-3M melanoma it was more than 100 µM; with SN12C renal it was more than 100 µM; in the assay with LOX IMVI melanoma, 37.2 µM; in the assay on HT29 colon it was 90.1 µM. The TGI was more than 100 µM with NCI-H226 lung; more than 100 µM in the assay on SF-268 CNS; 61.8 µM in the assay on HL-60(TB) leukemia; 73.8 µM with U251 CNS; 35.7 µM in the assay with SF-539 CNS.

`CC(C)(C)OC(=O)N/C(C=O)=C\C1CCCCC1`: the TGI in the assay with IGROV1 ovarian stood at 46 µM; in the assay on UACC-257 melanoma, 48 µM; in the assay with MALME-3M melanoma, 70.4 µM; in the assay on SN12C renal, 42.1 µM; with LOX IMVI melanoma, 29.9 µM; in the assay on HT29 colon, 71.6 µM. Further, the TGI in the assay on NCI-H226 lung was found to be 55.1 µM; in the assay with SF-268 CNS it was 52.3 µM; in the assay with HL-60(TB) leukemia, 65.4 µM; in the assay on U251 CNS it was 40.3 µM; in the assay on SF-539 CNS, 87.6 µM.
